Measurements reported in the supplement of paper PMC10307832.

Key:
Assay in all cases: relative viability (nuclei count vs DMSO), 5 days (fraction); higher = more cells survive
EMC-BAC-2 = tested on: EMC-BAC-2
Procedure, shortened: (§1)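 Medians of duplicate plates are given as relative viability. That measure is the nuclei count in treated wells divided by the count in vehicle wells. Counts were taken on 4× images of lung cancer cell lines in 1536-well plates, 5 days after pin-tool dosing the day after seeding with one drug alone or a fixed anchor-drug dose plus five library-drug doses (not always all listed) in √10 steps.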

NCI-H2009 = tested on: NCI-H2009
Procedure, shortened: as §1

NCI-H727 = tested on: NCI-H727
Procedure, shortened: as §1

NCI-H1993 = tested on: NCI-H1993
Procedure, shortened: as §1

EPLC-272H = tested on: EPLC-272H
Procedure, shortened: as §1

NCI-H1915 = tested on: NCI-H1915
Procedure, shortened: as §1

LXF-289 = tested on: LXF-289
Procedure, shortened: as §1

NCI-H2023 = tested on: NCI-H2023
Procedure, shortened: as §1

NCI-H2347 = tested on: NCI-H2347
Procedure, shortened: as §1

NCI-H647 = tested on: NCI-H647
Procedure, shortened: as §1

HOP-62 = tested on: HOP-62
Procedure, shortened: as §1

NCI-H2126 = tested on: NCI-H2126
Procedure, shortened: as §1

LCLC-97TM1 = tested on: LCLC-97TM1
Procedure, shortened: as §1

NCI-H322M = tested on: NCI-H322M
Procedure, shortened: as §1

NCI-H2085 = tested on: NCI-H2085
Procedure, shortened: as §1

NCI-H1734 = tested on: NCI-H1734
Procedure, shortened: as §1

NCI-H1563 = tested on: NCI-H1563
Procedure, shortened: as §1

PC-14 = tested on: PC-14
Procedure, shortened: as §1

SW 1573 = tested on: SW 1573
Procedure, shortened: as §1

NCI-H661 = tested on: NCI-H661
Procedure, shortened: as §1

SK-LU-1 = tested on: SK-LU-1
Procedure, shortened: as §1

H3255 = tested on: H3255
Procedure, shortened: as §1

O=c1cc(-c2cccc3c2Sc2ccccc2S3)oc(N2CCOCC2)c1 + COc1cc2c(Oc3ccc(NC(=O)C4(C(=O)Nc5ccc(F)cc5)CC4)cc3F)ccnc2cc1OCCCN1CCOCC1 [Foretinib] (partner 0.25 µM) showed a relative viability (EMC-BAC-2; first compound 0.08 µM) of 0.998, a relative viability (EMC-BAC-2; first compound 0.253 µM) of 0.987 and a relative viability (EMC-BAC-2; first compound 0.8 µM) of 1. The relative viability (EMC-BAC-2; first compound 2.53 µM) was 1.03, the relative viability (EMC-BAC-2; first compound 8 µM) was 1.12 and the relative viability (NCI-H2009; first compound 0.08 µM) was 1.23. It also gave a relative viability (NCI-H2009; first compound 0.253 µM) of 1.21, a relative viability (NCI-H2009; first compound 0.8 µM) of 1.15 and a relative viability (NCI-H2009; first compound 2.53 µM) of 1.12. It also gave a relative viability (NCI-H2009; first compound 8 µM) of 1.19, a relative viability (NCI-H727; first compound 0.08 µM) of 0.552 and a relative viability (NCI-H727; first compound 0.253 µM) of 0.867. For the same compound, the relative viability (NCI-H727; first compound 0.8 µM) was 0.904, the relative viability (NCI-H727; first compound 2.53 µM) was 0.842 and the relative viability (NCI-H727; first compound 8 µM) was 1.21. For the same compound, the relative viability (NCI-H1993; first compound 0.08 µM) was 0.705, the relative viability (NCI-H1993; first compound 0.253 µM) was 0.796 and the relative viability (NCI-H1993; first compound 0.8 µM) was 0.586. For the same compound, the relative viability (NCI-H1993; first compound 2.53 µM) was 0.75, the relative viability (NCI-H1993; first compound 8 µM) was 0.68 and the relative viability (EPLC-272H; first compound 0.08 µM) was 0.6. For the same compound, the relative viability (EPLC-272H; first compound 0.253 µM) was 0.624, the relative viability (EPLC-272H; first compound 0.8 µM) was 0.897 and the relative viability (EPLC-272H; first compound 2.53 µM) was 0.675. It also gave a relative viability (EPLC-272H; first compound 8 µM) of 0.572, a relative viability (NCI-H1915; first compound 0.08 µM) of 1.21 and a relative viability (NCI-H1915; first compound 0.253 µM) of 1.2. It also gave a relative viability (NCI-H1915; first compound 0.8 µM) of 1.08, a relative viability (NCI-H1915; first compound 2.53 µM) of 1.06 and a relative viability (NCI-H1915; first compound 8 µM) of 1.11. For the same compound, the relative viability (LXF-289; first compound 0.08 µM) was 0.935, the relative viability (LXF-289; first compound 0.253 µM) was 1.12 and the relative viability (LXF-289; first compound 0.8 µM) was 0.974. The relative viability (LXF-289; first compound 2.53 µM) was 1.02, the relative viability (LXF-289; first compound 8 µM) was 1.1 and the relative viability (NCI-H2023; first compound 0.08 µM) was 0.688. For the same compound, the relative viability (NCI-H2023; first compound 0.253 µM) was 0.889, the relative viability (NCI-H2023; first compound 0.8 µM) was 0.965 and the relative viability (NCI-H2023; first compound 8 µM) was 0.861. The relative viability (NCI-H2347; first compound 0.08 µM) was 0.903, the relative viability (NCI-H2347; first compound 0.253 µM) was 0.841 and the relative viability (NCI-H2347; first compound 0.8 µM) was 0.682. For the same compound, the relative viability (NCI-H2347; first compound 2.53 µM) was 0.679, the relative viability (NCI-H2347; first compound 8 µM) was 0.892 and the relative viability (NCI-H647; first compound 0.08 µM) was 1.15. The relative viability (NCI-H647; first compound 0.253 µM) was 1.35, the relative viability (NCI-H647; first compound 0.8 µM) was 1.25 and the relative viability (NCI-H647; first compound 2.53 µM) was 1.21. The relative viability (NCI-H647; first compound 8 µM) was 1.29, the relative viability (HOP-62; first compound 0.08 µM) was 1.23 and the relative viability (HOP-62; first compound 0.253 µM) was 1.27. The relative viability (HOP-62; first compound 0.8 µM) was 1.25, the relative viability (HOP-62; first compound 2.53 µM) was 1.02 and the relative viability (HOP-62; first compound 8 µM) was 1.14. The relative viability (NCI-H2126; first compound 0.08 µM) was 1.22, the relative viability (NCI-H2126; first compound 0.253 µM) was 1.39 and the relative viability (NCI-H2126; first compound 0.8 µM) was 1.02. For the same compound, the relative viability (NCI-H2126; first compound 2.53 µM) was 1.03, the relative viability (NCI-H2126; first compound 8 µM) was 0.994 and the relative viability (LCLC-97TM1; first compound 0.08 µM) was 0.961. For the same compound, the relative viability (LCLC-97TM1; first compound 0.253 µM) was 1.02, the relative viability (LCLC-97TM1; first compound 0.8 µM) was 0.977 and the relative viability (LCLC-97TM1; first compound 2.53 µM) was 0.887. It also gave a relative viability (LCLC-97TM1; first compound 8 µM) of 0.909, a relative viability (NCI-H322M; first compound 0.08 µM) of 0.896 and a relative viability (NCI-H322M; first compound 0.253 µM) of 1. For the same compound, the relative viability (NCI-H322M; first compound 0.8 µM) was 0.885, the relative viability (NCI-H322M; first compound 2.53 µM) was 0.858 and the relative viability (NCI-H322M; first compound 8 µM) was 0.972. For the same compound, the relative viability (NCI-H2085; first compound 0.08 µM) was 0.907, the relative viability (NCI-H2085; first compound 0.253 µM) was 1.21 and the relative viability (NCI-H2085; first compound 0.8 µM) was 0.975. The relative viability (NCI-H2085; first compound 2.53 µM) was 0.771, the relative viability (NCI-H2085; first compound 8 µM) was 0.845 and the relative viability (NCI-H1734; first compound 0.08 µM) was 0.788. For the same compound, the relative viability (NCI-H1734; first compound 0.253 µM) was 1.04, the relative viability (NCI-H1734; first compound 0.8 µM) was 0.99 and the relative viability (NCI-H1734; first compound 8 µM) was 0.94. The relative viability (NCI-H1563; first compound 0.08 µM) was 0.922, the relative viability (NCI-H1563; first compound 0.253 µM) was 0.895 and the relative viability (NCI-H1563; first compound 0.8 µM) was 0.868. It also gave a relative viability (NCI-H1563; first compound 2.53 µM) of 0.89, a relative viability (NCI-H1563; first compound 8 µM) of 0.91 and a relative viability (PC-14; first compound 0.08 µM) of 0.95. For the same compound, the relative viability (PC-14; first compound 0.253 µM) was 1.29, the relative viability (PC-14; first compound 0.8 µM) was 0.924 and the relative viability (PC-14; first compound 2.53 µM) was 0.961. It also gave a relative viability (PC-14; first compound 8 µM) of 0.966, a relative viability (SW 1573; first compound 0.08 µM) of 0.8 and a relative viability (SW 1573; first compound 0.253 µM) of 0.916. It also gave a relative viability (SW 1573; first compound 0.8 µM) of 0.783, a relative viability (SW 1573; first compound 2.53 µM) of 0.989 and a relative viability (SW 1573; first compound 8 µM) of 1. The relative viability (NCI-H661; first compound 0.08 µM) was 1.02, the relative viability (NCI-H661; first compound 0.253 µM) was 1.02 and the relative viability (NCI-H661; first compound 0.8 µM) was 0.92. It also gave a relative viability (NCI-H661; first compound 2.53 µM) of 0.952, a relative viability (NCI-H661; first compound 8 µM) of 1 and a relative viability (SK-LU-1; first compound 0.08 µM) of 0.787. It also gave a relative viability (SK-LU-1; first compound 0.253 µM) of 1.05, a relative viability (SK-LU-1; first compound 0.8 µM) of 0.906 and a relative viability (SK-LU-1; first compound 2.53 µM) of 0.842. It also gave a relative viability (SK-LU-1; first compound 8 µM) of 0.831, a relative viability (H3255; first compound 0.08 µM) of 0.758 and a relative viability (H3255; first compound 0.253 µM) of 0.821. The relative viability (H3255; first compound 0.8 µM) was 0.87, the relative viability (H3255; first compound 2.53 µM) was 0.738 and the relative viability (H3255; first compound 8 µM) was 0.925.
